# In PubChem BioAssay AID1918931 (Molecular Pharmacology Branch, DTP, NCI, 2023):
# Tested on: 138582-337-R-J1-PDC complex spheroid viability
# Experiment: Anticancer human tumor 138582-337-R-J1-PDC patient-derived Merkel cell tumor cell line growth inhibition
# Conditions: for IC50: curve of first compound; for viability, T/C: stronger effect = lower value
# Method in brief: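 Drug combinations with the LSD1 inhibitor iadademstat tested on tumor cells co-cultured as spheroids with endothelial cells and mesenchymal stem cells. Concentrations descended in half-log increments from clinical Cmax or 10 microM.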
# 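Also: spheroids exposed to agents for 7 days.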
# 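For viability, T/C in this document: 100% = DMSO vehicle control viability.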
smiles,measurement,setting,value
Nc1ncn(C2CC(O)C(CO)S2)c(=O)n1 (stereo not given) + NC1CCC(NC2CC2c2ccccc2)CC1,IC50,second compound 0.1 µM,> 300 nM
same,IC50,second compound 0.316 µM,> 300 nM
same,IC50,second compound 1 µM,> 300 nM
same,IC50,second compound 3.16 µM,> 300 nM
same,IC50,second compound 10 µM,> 300 nM
same,"viability, T/C","second compound 0.1 µM, first compound 0.000949 µM",98.9%
same,"viability, T/C","second compound 0.1 µM, first compound 0.003 µM",105%
same,"viability, T/C","second compound 0.1 µM, first compound 0.00949 µM",101%
same,"viability, T/C","second compound 0.1 µM, first compound 0.03 µM",102%
same,"viability, T/C","second compound 0.1 µM, first compound 0.0949 µM",106%
same,"viability, T/C","second compound 0.1 µM, first compound 0.3 µM",93.5%
same,"viability, T/C","second compound 0.316 µM, first compound 0.000949 µM",95%
same,"viability, T/C","second compound 0.316 µM, first compound 0.003 µM",93.9%
same,"viability, T/C","second compound 0.316 µM, first compound 0.00949 µM",96.4%
same,"viability, T/C","second compound 0.316 µM, first compound 0.03 µM",95.4%
same,"viability, T/C","second compound 0.316 µM, first compound 0.0949 µM",94.5%
same,"viability, T/C","second compound 0.316 µM, first compound 0.3 µM",108%
same,"viability, T/C","second compound 1 µM, first compound 0.000949 µM",90.9%
same,"viability, T/C","second compound 1 µM, first compound 0.003 µM",103%
same,"viability, T/C","second compound 1 µM, first compound 0.00949 µM",107%
same,"viability, T/C","second compound 1 µM, first compound 0.03 µM",87.8%
same,"viability, T/C","second compound 1 µM, first compound 0.0949 µM",81%
same,"viability, T/C","second compound 1 µM, first compound 0.3 µM",100%
same,"viability, T/C","second compound 3.16 µM, first compound 0.000949 µM",89.2%
same,"viability, T/C","second compound 3.16 µM, first compound 0.003 µM",96%
same,"viability, T/C","second compound 3.16 µM, first compound 0.00949 µM",88%
same,"viability, T/C","second compound 3.16 µM, first compound 0.03 µM",78.4%
same,"viability, T/C","second compound 3.16 µM, first compound 0.0949 µM",93.5%
same,"viability, T/C","second compound 3.16 µM, first compound 0.3 µM",84.7%
same,"viability, T/C","second compound 10 µM, first compound 0.000949 µM",80.1%
same,"viability, T/C","second compound 10 µM, first compound 0.003 µM",80.4%
same,"viability, T/C","second compound 10 µM, first compound 0.00949 µM",91.4%
same,"viability, T/C","second compound 10 µM, first compound 0.03 µM",87.5%
same,"viability, T/C","second compound 10 µM, first compound 0.0949 µM",78.6%
same,"viability, T/C","second compound 10 µM, first compound 0.3 µM",85%
O=C(C=Cn1cnc(-c2cc(C(F)(F)F)cc(C(F)(F)F)c2)n1)NNc1cnccn1 + NC1CCC(NC2CC2c2ccccc2)CC1,IC50,second compound 0.1 µM,8.4 nM
same,IC50,second compound 0.316 µM,9.48 nM
same,IC50,second compound 1 µM,7.39 nM
same,IC50,second compound 3.16 µM,6.26 nM
same,IC50,second compound 10 µM,5.57 nM
same,"viability, T/C","second compound 0.1 µM, first compound 0.00316 µM",73.5%
same,"viability, T/C","second compound 0.1 µM, first compound 0.01 µM",45.8%
same,"viability, T/C","second compound 0.1 µM, first compound 0.0316 µM",21.6%
same,"viability, T/C","second compound 0.1 µM, first compound 0.1 µM",18.4%
same,"viability, T/C","second compound 0.1 µM, first compound 0.316 µM",22.6%
same,"viability, T/C","second compound 0.1 µM, first compound 1 µM",17.4%
same,"viability, T/C","second compound 0.316 µM, first compound 0.00316 µM",67%
same,"viability, T/C","second compound 0.316 µM, first compound 0.01 µM",49.1%
same,"viability, T/C","second compound 0.316 µM, first compound 0.0316 µM",21.2%
same,"viability, T/C","second compound 0.316 µM, first compound 0.1 µM",20.7%
same,"viability, T/C","second compound 0.316 µM, first compound 0.316 µM",30.3%
same,"viability, T/C","second compound 0.316 µM, first compound 1 µM",21.7%
same,"viability, T/C","second compound 1 µM, first compound 0.00316 µM",82.5%
same,"viability, T/C","second compound 1 µM, first compound 0.01 µM",38.4%
same,"viability, T/C","second compound 1 µM, first compound 0.0316 µM",21.4%
same,"viability, T/C","second compound 1 µM, first compound 0.1 µM",20.5%
same,"viability, T/C","second compound 1 µM, first compound 0.316 µM",21.6%
same,"viability, T/C","second compound 1 µM, first compound 1 µM",23.1%
same,"viability, T/C","second compound 3.16 µM, first compound 0.00316 µM",61%
same,"viability, T/C","second compound 3.16 µM, first compound 0.01 µM",42.4%
same,"viability, T/C","second compound 3.16 µM, first compound 0.0316 µM",19%
same,"viability, T/C","second compound 3.16 µM, first compound 0.1 µM",20.1%
same,"viability, T/C","second compound 3.16 µM, first compound 0.316 µM",22.8%
same,"viability, T/C","second compound 3.16 µM, first compound 1 µM",24.7%
same,"viability, T/C","second compound 10 µM, first compound 0.00316 µM",75%
same,"viability, T/C","second compound 10 µM, first compound 0.01 µM",24.6%
same,"viability, T/C","second compound 10 µM, first compound 0.0316 µM",11.9%
same,"viability, T/C","second compound 10 µM, first compound 0.1 µM",18%
same,"viability, T/C","second compound 10 µM, first compound 0.316 µM",24.5%
same,"viability, T/C","second compound 10 µM, first compound 1 µM",31.8%
